Laboratory results from US11912682B2, “Isoindolinone compounds” (Monte Rosa Therapeutics, Inc., priority 2021, dated 2024).

Assays:
GSPT1 [1] = target: T1, GSPT1 (Homo sapiens (Human), UniProt P15170); assay: GSPT1 degradation in tumors of treated mice (FIG. 3B); type: in vivo, mouse; conditions: all three dose levels (1, 3, 6 mg/kg), compared to vehicle control
IKZF3 = IKZF3 (Homo sapiens (Human), UniProt Q9UKT9); assay: IKZF3 degradation in cells treated with compound (FIG. 1A); type: cell-based; conditions: concentrations up to 30 µM
IKZF3, sequence (Q9UKT9 whole entry, looked up): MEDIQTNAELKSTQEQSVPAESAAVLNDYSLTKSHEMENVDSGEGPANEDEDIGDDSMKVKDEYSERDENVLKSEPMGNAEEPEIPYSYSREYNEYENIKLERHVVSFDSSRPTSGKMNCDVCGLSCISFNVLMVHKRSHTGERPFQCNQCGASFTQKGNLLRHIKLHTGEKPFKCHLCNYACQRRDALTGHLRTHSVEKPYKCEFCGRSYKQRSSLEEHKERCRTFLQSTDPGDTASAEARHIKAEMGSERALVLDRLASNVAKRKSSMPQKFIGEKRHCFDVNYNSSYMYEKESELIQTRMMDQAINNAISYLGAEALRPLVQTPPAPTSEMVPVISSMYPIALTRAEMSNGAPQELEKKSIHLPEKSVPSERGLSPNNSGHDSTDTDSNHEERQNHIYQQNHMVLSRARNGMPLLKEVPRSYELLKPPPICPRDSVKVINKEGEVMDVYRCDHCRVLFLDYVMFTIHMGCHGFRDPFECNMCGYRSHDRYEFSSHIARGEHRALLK

human cell line NCI-H526 = assay: N-Myc-driven mouse xenograft model, NCI-H526 (FIG. 3D); type: in vivo
[2] = system: NCI-H1155 cells (human non small cell lung cancer); assay: NCI-H1155 xenograft study; type: in vivo, female BALB/c nude mice
Method: For the NCI-H1155 xenograft study, cells (human non small cell lung cancer, ATCC CRL-5818) were maintained in vitro as suspension culture in ATCC-formulated DMEM:F12 Medium supplemented as recommended by the provider and kept at 37° C. in an atmosphere of 5% CO2 in air. Cells (0.5 millions) were resuspended in 0.2 mL of PBS with Matrigel (50:50) and inoculated into female BALB/c nude mice, 6-8 weeks old, and allowed to grow to 150 mm^3 in size. Mice were dosed orally with either vehicle or compound 10 at 1 or 3 mg per kilogram daily (filled squares and filled triangles, respectively) or 6 mg per kilogram for 5 continous days followed by 9 days treatment holidays (5 On-9 off) (filled inverted triangles). Compound formulations were prepared fresh daily in 5%vDMSO/95%(30% w/v HP-β-CD in water). Gemcitabine dosed at 40 mg per kilogram, IP, Q4D×5 was used as a positive control (filled rhombi). For this study, mice were dosed for 21 days with tumor volumes measured every 3 days.

IKZF1 = IKZF1 (Homo sapiens (Human), UniProt Q13422); assay: IKZF1 degradation in cells treated with compound (FIG. 1A); type: cell-based; conditions: concentrations up to 30 µM
IKZF1, sequence (Q13422 whole entry, looked up): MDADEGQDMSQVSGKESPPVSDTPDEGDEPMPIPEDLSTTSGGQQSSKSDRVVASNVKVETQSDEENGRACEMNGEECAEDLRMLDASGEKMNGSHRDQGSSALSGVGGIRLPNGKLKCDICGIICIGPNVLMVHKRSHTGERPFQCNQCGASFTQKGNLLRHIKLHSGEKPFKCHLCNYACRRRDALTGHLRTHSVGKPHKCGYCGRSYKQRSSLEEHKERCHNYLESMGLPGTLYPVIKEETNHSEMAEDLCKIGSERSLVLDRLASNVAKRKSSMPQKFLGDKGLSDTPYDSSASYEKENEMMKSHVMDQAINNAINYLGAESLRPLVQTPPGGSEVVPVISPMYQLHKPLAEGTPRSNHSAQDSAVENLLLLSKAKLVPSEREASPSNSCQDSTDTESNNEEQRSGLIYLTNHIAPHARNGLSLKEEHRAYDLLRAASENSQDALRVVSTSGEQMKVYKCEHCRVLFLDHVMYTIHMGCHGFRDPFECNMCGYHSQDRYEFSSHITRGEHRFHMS

[3] = system: NCI-H1155, ABC-1 and EBC-1, NCI-H2023; assay: viability assay (CellTiter-Glo) in N-Myc high and N-Myc low NSCLC cell lines; type: cell-based; conditions: 72 hours
Method: The anti-proliferative activity of compound 10 was tested on representative N-Myc high and N-Myc low cell lines (NCI-H1155, ABC-1 and EBC-1, NCI-H2023, respectively) following treatment with compound for 72 hours. Cells were sub-cultures as recommended by the providers (ATCC, DSMZ) and incubated at 37° C., 5% CO2. All cells were authenticated and confirmed by Short Tandem Repeat (STR) profiling. Briefly, cells were seeded to the appropriate density to allow logarithmic growth over the assay period in 96-well opaque-walled clear bottom plates (from Corning, Cat. No. 3903, Lot. No. 16419061; 100 μL total volume) and incubated overnight. […] Cell viability was assessed using the CellTiter-Glo assay kit as recommended by the Manufacturer (Promega, Cat. No. G7558, Lot. No. 0000385738) and measurements performed on the EnSpire multimode plate reader (Perkin Elmer). EC50 values were determined using Prism8 (GraphPad) and the asymmetric (five-parameter) equation and least squares fit. GSPT1 levels were assessed in the NCI-H1155 and ABC-1 cell lines by densitometry analysis following treatment with compound 10 for 6 hours and western blotting analysis. […] For chemiluminescence and colorimetric signals “optimal automatic exposure” settings (3×3 binning) were employed while fluorescence was detected using 1-4 seconds exposure time to achieve best GAPDH signals and avoid overexposure. […]

GSPT1 [4] = target: T2, GSPT1 (Homo sapiens (Human), UniProt P15170+Q96SW2); assay: GSPT1 degradation in high N-Myc NSCLC cells (FIG. 2); type: cell-based; conditions: for DC50: six hours of treatment
Target sequence in this assay (P15170 whole entry, looked up): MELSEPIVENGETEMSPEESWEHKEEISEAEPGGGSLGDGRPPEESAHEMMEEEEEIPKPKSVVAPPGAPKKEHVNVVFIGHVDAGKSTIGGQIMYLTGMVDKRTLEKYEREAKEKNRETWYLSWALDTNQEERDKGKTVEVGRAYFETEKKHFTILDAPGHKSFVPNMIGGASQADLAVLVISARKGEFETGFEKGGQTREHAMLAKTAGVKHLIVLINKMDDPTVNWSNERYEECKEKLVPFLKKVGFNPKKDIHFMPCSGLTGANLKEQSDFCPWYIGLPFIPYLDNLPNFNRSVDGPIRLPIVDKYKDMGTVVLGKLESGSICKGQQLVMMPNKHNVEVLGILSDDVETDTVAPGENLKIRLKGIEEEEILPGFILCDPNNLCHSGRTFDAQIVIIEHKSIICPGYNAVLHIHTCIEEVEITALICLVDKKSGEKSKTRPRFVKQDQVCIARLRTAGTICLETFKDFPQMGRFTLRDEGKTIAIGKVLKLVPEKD
Target sequence in this assay (Q96SW2 whole entry, looked up): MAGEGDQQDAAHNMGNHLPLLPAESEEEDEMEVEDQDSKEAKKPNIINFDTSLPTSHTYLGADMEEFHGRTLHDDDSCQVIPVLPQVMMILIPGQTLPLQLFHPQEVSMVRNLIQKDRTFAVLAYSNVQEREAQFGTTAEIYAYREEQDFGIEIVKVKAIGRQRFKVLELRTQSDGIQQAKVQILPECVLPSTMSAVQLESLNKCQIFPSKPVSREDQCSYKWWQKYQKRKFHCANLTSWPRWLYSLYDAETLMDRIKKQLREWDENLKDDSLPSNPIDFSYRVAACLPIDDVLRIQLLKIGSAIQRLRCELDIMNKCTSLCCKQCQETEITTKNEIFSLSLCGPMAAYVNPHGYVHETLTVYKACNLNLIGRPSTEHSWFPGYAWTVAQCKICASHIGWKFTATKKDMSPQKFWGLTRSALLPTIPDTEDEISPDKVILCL
Target sequence in this assay (Q16531 whole entry partner, looked up): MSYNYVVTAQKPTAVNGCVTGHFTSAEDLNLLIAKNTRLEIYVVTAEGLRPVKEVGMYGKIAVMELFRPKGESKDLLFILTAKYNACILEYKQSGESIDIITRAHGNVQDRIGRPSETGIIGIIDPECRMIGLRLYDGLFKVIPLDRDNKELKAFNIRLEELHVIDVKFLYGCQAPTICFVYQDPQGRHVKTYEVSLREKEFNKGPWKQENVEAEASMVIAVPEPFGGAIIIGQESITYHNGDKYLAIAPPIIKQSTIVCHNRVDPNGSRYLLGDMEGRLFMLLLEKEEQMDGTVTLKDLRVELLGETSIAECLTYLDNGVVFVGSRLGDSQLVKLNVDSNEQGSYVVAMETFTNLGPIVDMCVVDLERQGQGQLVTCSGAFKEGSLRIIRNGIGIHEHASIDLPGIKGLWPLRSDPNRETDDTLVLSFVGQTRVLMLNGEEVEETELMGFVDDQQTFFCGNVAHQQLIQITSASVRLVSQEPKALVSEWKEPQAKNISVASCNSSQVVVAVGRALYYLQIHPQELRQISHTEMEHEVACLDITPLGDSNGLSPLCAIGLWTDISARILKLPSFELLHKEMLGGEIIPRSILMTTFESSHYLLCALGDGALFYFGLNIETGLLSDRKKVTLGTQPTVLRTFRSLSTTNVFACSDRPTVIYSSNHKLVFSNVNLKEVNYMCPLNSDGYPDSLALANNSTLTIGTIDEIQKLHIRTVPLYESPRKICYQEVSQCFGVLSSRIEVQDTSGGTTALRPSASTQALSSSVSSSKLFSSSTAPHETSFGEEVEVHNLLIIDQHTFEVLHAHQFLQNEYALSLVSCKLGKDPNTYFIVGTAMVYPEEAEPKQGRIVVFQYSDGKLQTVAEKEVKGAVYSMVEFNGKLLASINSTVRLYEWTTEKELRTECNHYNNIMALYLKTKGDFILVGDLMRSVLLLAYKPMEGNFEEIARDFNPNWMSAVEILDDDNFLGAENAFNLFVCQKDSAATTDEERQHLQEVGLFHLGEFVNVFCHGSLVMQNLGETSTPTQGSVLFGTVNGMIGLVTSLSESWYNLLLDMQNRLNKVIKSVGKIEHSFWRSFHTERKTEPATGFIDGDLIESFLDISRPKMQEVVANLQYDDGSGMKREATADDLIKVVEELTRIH

CK1alpha = CK1alpha (Homo sapiens (Human), UniProt P48729); assay: CK1alpha degradation in cells treated with compound (FIG. 1A); type: cell-based; conditions: concentrations up to 30 µM
CK1alpha, sequence (P48729 whole entry, looked up): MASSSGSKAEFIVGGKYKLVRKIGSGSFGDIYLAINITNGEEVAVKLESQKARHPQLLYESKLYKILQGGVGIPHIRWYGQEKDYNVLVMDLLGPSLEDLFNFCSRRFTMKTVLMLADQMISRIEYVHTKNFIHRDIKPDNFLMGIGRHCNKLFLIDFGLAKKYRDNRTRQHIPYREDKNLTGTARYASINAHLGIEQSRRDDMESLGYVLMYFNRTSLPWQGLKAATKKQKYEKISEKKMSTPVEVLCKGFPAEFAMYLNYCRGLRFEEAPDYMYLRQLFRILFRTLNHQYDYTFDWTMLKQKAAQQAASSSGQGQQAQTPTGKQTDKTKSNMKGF

GSPT1 [5] = target: T1, GSPT1; assay: GSPT1 levels in NCI-H1155 tumors by western blotting; type: in vivo, female BALB/c nude mice; conditions: 6 hours after the third dose, all three dose levels
Method: GSPT1 levels in tumors were determined by western blotting 6 hours after the third dose. Western blotting was performed as described previously using GAPDH as loading control.

GSPT1 [6] = target: T2, GSPT1; assay: GSPT1 levels by western blotting and densitometry in NCI-H1155 and ABC-1 cell lines; type: cell-based; conditions: for DC50: six hours
Method: The anti-proliferative activity of compound 10 was tested on representative N-Myc high and N-Myc low cell lines (NCI-H1155, ABC-1 and EBC-1, NCI-H2023, respectively) following treatment with compound for 72 hours. Cells were sub-cultures as recommended by the providers (ATCC, DSMZ) and incubated at 37° C., 5% CO2. All cells were authenticated and confirmed by Short Tandem Repeat (STR) profiling. Briefly, cells were seeded to the appropriate density to allow logarithmic growth over the assay period in 96-well opaque-walled clear bottom plates (from Corning, Cat. No. 3903, Lot. No. 16419061; 100 μL total volume) and incubated overnight. Compound 10 and DMSO control were subsequently dispensed to the plates using HPD300 and a 9 data-point titration curve with concentrations ranging from 30 μM to 0.1 nM. Dilutions were prepared fresh prior to the assay using a 10 mM DMSO stock. Final DMSO concentration was 0.5%. The plates were incubated for 3 days at 5% CO2, 37° C. Cell viability was assessed using the CellTiter-Glo assay kit as recommended by the Manufacturer (Promega, Cat. No. G7558, Lot. No. 0000385738) and measurements performed on the EnSpire multimode plate reader (Perkin Elmer). EC50 values were determined using Prism8 (GraphPad) and the asymmetric (five-parameter) equation and least squares fit. GSPT1 levels were assessed in the NCI-H1155 and ABC-1 cell lines by densitometry analysis following treatment with compound 10 for 6 hours and western blotting analysis. […] Membranes were then transferred between two clean sheets of plastic and chemiluminescence (GSPT1), Dylight680 fluorescence (GAPDH) as well as colorimetric (molecular weight standard) signals were detected using a Chemidoc MP imaging system (BioRad 17001402). For chemiluminescence and colorimetric signals “optimal automatic exposure” settings (3×3 binning) were employed while fluorescence was detected using 1-4 seconds exposure time to achieve best GAPDH signals and avoid overexposure. […]
Target sequence in this assay (P15170 whole entry): as the sequence (P15170 whole entry, looked up) above
Target sequence in this assay (Q96SW2 whole entry): as the sequence (Q96SW2 whole entry, looked up) above
Target sequence in this assay (Q16531 2-1140 partner): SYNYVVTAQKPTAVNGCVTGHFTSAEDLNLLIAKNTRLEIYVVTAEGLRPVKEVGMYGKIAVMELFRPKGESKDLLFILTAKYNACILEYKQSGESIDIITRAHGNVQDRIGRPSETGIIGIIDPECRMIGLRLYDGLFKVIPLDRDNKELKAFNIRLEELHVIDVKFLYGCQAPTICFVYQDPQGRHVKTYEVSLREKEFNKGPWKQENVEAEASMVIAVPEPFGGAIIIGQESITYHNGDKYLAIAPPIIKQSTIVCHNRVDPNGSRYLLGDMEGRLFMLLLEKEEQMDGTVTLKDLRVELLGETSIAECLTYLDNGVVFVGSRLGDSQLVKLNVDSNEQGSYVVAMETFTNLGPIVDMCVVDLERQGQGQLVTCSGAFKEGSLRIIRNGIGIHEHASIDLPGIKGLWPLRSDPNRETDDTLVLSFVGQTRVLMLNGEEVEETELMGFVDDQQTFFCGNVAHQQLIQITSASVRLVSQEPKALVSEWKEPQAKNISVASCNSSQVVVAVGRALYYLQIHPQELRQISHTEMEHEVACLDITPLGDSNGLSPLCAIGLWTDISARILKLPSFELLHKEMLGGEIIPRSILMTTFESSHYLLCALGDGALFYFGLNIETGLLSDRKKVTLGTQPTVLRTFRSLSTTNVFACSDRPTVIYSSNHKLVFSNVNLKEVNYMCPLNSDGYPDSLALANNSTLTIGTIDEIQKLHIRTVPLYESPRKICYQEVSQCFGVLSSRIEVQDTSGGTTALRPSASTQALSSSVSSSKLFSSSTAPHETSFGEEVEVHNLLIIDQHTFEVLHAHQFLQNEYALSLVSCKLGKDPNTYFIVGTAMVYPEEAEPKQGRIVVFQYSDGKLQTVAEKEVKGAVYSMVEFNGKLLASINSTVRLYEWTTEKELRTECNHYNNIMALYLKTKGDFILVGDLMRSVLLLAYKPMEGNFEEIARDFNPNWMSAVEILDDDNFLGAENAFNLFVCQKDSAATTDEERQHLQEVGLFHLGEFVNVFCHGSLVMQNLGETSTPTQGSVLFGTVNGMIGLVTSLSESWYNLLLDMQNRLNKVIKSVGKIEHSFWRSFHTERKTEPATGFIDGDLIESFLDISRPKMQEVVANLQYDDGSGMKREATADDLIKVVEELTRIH

[7] = system: human cell line NCI-H1770; assay: N-Myc-driven mouse xenograft model, NCI-H1770 (FIG. 3C); type: in vivo
ABC-1 = assay: Viability of NSCLC cell line, high N-Myc (FIG. 2A); type: cell-based; conditions: ABC-1, high N-Myc; compared to low N-Myc lines EBC-1, NCI-H2023
[8] = 6 mg/kg PO five days on and nine days off

T1 sequence (P15170 whole entry): as the sequence (P15170 whole entry, looked up) above
T1 sequence (Q96SW2 whole entry, further chain): as the sequence (Q96SW2 whole entry, looked up) above
T1 sequence (Q16531 2-1140 partner): as the sequence (Q16531 2-1140 partner) above

Cc1ccc(NC(=O)OCc2ccc3c(c2)C(=O)N(C2CCC(=O)NC2=O)C3)cc1Cl (stereo not drawn) [Compound 10]
degradation of GSPT1 in tumors (GSPT1 [1]): complete degradation | degradation of IKZF3 (IKZF3): no induction of degradation | tumor size (tumor volume) (human cell line NCI-H526; 3 mg/kg PO once daily): tumor size decreased and remained so until the end of the study | tumor size (tumor volume) (human cell line NCI-H526; [8]): tumor size decreased and remained so until the end of the study | body weight (human cell line NCI-H526; oral administration): no body weight loss | effect on tumor growth (tumor volume) (human cell line NCI-H526; oral administration): tumor growth inhibition | tumor growth (FIG. 3A) ([2]; 1 mg/kg once daily, oral): tumor growth was suppressed for two weeks | tumor size (FIG. 3A) ([2]; 3 mg/kg once daily, oral): tumor size decreased, became undetectable by day eight and remained so until the end of the study at day 21 | tumor size (FIG. 3A) ([2]; 6 mg/kg five days on and nine days off, oral): tumor size decreased, became undetectable by day eight and remained so until the end of the study at day 21 | body weight ([2]; oral administration): no body weight loss observed | tumor growth (FIG. 3A) ([2]; oral administration): tumor growth inhibition | degradation of IKZF1 (IKZF1): no induction of degradation | anti-proliferative sensitivity (FIG. 2A) [3]: sensitivity correlated with the expression of N-Myc | DC50 (GSPT1 [4]; ABC-1 cells): 22 nM | relative levels of GSPT1 vs concentration (GSPT1 [4]; FIG. 2B): concentration dependent manner | DC50 (GSPT1 [4]; NCI-H1155 cells): 3 nM | extent of GSPT1 degradation (GSPT1 [4]; both cell lines, NCI-H1155 and ABC-1): complete degradation | degradation of CK1alpha (CK1alpha): no induction of degradation | GSPT1 levels in tumors (FIG. 3B) (GSPT1 [5]): Complete degradation of GSPT1 | DC50 (GSPT1 [6]; ABC-1 cells): 22 nM | DC50 (GSPT1 [6]; NCI-H1155 cells): 3 nM | GSPT1 degradation (GSPT1 [6]; high N-Myc NCI-H1155 and ABC-1 cells, six hours of treatment): Complete degradation of GSPT1 | tumor size (tumor volume) ([7]; 3 mg/kg PO once daily): tumor size decreased and remained so until the end of the study | tumor size (tumor volume) [7, 8]: tumor size decreased and remained so until the end of the study | body weight ([7]; oral administration): no body weight loss | effect on tumor growth (tumor volume) ([7]; oral administration): tumor growth inhibition | sensitivity to treatment (viability in %) (ABC-1): highly sensitive
